Laboratory results published in US20230263792A1, “USE OF 2,3,5-SUBSTITUTED THIOPHENE COMPOUND FOR PREVENTING, ALLEVIATION, OR TREATING MASTOCYTOSIS” (PHAROS IBIO CO., LTD, priority 2020, published 2023).

Experiments:
[1] = system: HMC-1.2 cell line (imatinib-resistant cell line, having c-kit G560V/D816V mutation); test: Growth inhibition of mastocytosis cell line HMC-1.2; assay type: cell-based; details: HMC-1.2, 72 hours
Procedure: [Worded in the source for another cell line; this cell line is reported under the same test.] Specifically, 100 μl of a Ba/F3 cell line with a c-kit D816V mutation (FIG. 1) was added to each well of a 96-well plate at a concentration of 10,000 cells/100 μl. […] As the control compounds, imatinib and sunitinib which are c-kit inhibitors were used.

[2] = system: neoplastic mast cells exhibiting wild type (wt) KIT or the rarely occurring F522C-mutated variant of KIT; details: literature, background; cited from earlier work
[3] = system: HMC-1.2 cells subcutaneous tumor; test: Tumor growth inhibition in mastocytosis mouse model with HMC-1.2 cell line; assay type: in vivo, NOD SCID female mice
Procedure: (§1) As mice, 6-8-week-old NOD SCID female mice (18 to 22 g) (GemPharmatech Co., Ltd.) were prepared. Mice were acclimatized for 7 days before use in the experiment, and mice with abnormal health were excluded from the experiment. Mice were bred in a cage (300×180×150 mm) at a 22±3° C. and a relative humidity of 40% to 70% with a 12-hr light/12-hr dark cycle. Mice were allowed access to sterilized dry granular food (Beijing Keaoxieli Feed Co., Ltd., Beijing, China) and water ad libitum for the entire experimental period except for the period specified in the protocol.
50 ml of HMC-1.2 cells suspension-cultured in a 75T flask were placed in a conical tube and centrifuged at 1,200 rpm for 2 minutes, centrifuged with DPBS (Dulbecco's Phosphate-Buffered Saline, Welgene) at 1,200 rpm for 2 minutes, washed, and then suspended in RPMI1640 (Welgene) without antibiotics and fetal bovine serum (FBS).
Thereafter, when the average tumor volume reached 150 to 200 mm^3, 4 mice were assigned to each group so that the average tumor volume at each group and treatment time was the same between the groups.
In addition, the width and length of the tumor were measured using a caliper at 3-day intervals, and the tumor volume was calculated using the following equation.
(V: tumor volume, W: tumor width, and L: tumor length)
In addition, the mice were sacrificed 3 weeks after the start of oral administration of each drug and the tumor weight was measured using a digital scale. For each data, one-way ANOVA was used to test the significance of each group.

[4] = system: inflammatory response caused by mastocytosis (HMC-1.2 mouse model); test: Spleen/body weight ratio in mastocytosis mouse model (inflammatory response); assay type: in vivo, NOD SCID female mice
Procedure: as §1
50 ml of HMC-1.2 cells suspension-cultured in a 75T flask were placed in a conical tube and centrifuged at 1,200 rpm for 2 minutes, centrifuged with DPBS (Dulbecco's Phosphate-Buffered Saline, Welgene) at 1,200 rpm for 2 minutes, washed, and then suspended in RPMI1640 (Welgene) without antibiotics and fetal bovine serum (FBS). Then, the cells were stained with trypan blue, counted with a hemocytometer, and then HMC-1.2 cells (1×10^6) in a mixture of 0.1 ml L-15 and Matrigel (BD, cat. No. 356234) (1:1) were subcutaneously injected into the right flanks of mice anesthetized by intraperitoneal administration of Avertin (250 mg/kg), thus inducing tumors.
Thereafter, when the average tumor volume reached 150 to 200 mm^3, 4 mice were assigned to each group so that the average tumor volume at each group and treatment time was the same between the groups. Then, each of imatinib at a dose of 90 mg/kg, sunitinib at doses of 20 and 40 mg/kg, and PHI-101 at doses of 7, 20, 40 and 80 mg/kg was administered orally to the mice once daily for 3 weeks. For oral administration, each compound was dissolved in 5% 1-methyl-2-pyrrolidone and then completely mixed in 15% Kolliphor, 30% PEG E400 HS15 and 50% 0.05M citric acid.
Specifically, 3 weeks after administering each drug to the mastocytosis mouse model of Example 3-1, the mice were sacrificed, the body weight and spleen weight were measured using a digital scale, and then the spleen/body weight ratio was calculated.

[5] = system: neoplastic mast cells with the c-KIT mutation D816V; details: literature, background; cited from earlier work
[6] = 90 mg/kg oral once daily for 3 weeks
[7] = 20 mg/kg oral once daily for 3 weeks
[8] = 40 mg/kg oral once daily for 3 weeks

Structure (SMILES): Cc1nc(Nc2ncc(C(=O)Nc3c(C)cccc3Cl)s2)cc(N2CCN(CCO)CC2)n1 [Dasatinib]
- GI50 [1]: 0.312 µM

Structure (SMILES): Cc1ccc(NC(=O)c2ccc(CN3CCN(C)CC3)cc2)cc1Nc1nccc(-c2cccnc2)n1 [Imatinib, reference compound]
- growth of neoplastic mast cells with wt KIT or F522C KIT [2]: counteract the growth
- GI50 [1]: 17.1 µM
- Tumor growth inhibition (TGI) (%) Tumor weight [3, 6]: 7.8%
- Spleen/body weight ratio % of control [4, 6]: 97.7%
- Spleen/body weight ratio Inhibition (%) [4, 6]: 2.3%
- growth of neoplastic mast cells with c-KIT D816V [5]: failed to inhibit the growth

Structure (SMILES): Cc1ccc(C(=O)Nc2ccc(CN3CCN(C)CC3)c(C(F)(F)F)c2)cc1C#Cc1cnc2cccnn12 [Ponatinib]
- GI50 [1]: 0.194 µM

Structure (SMILES): CCN(CC)CCNC(=O)c1c(C)[nH]c(/C=C2\C(=O)Nc3ccc(F)cc32)c1C [Sunitinib, reference compound]
- GI50 [1]: 1.3 µM
- Tumor growth inhibition (TGI) (%) Timor volume [3, 7]: 37.3%
- Tumor growth inhibition (TGI) (%) Tumor weight [3, 7]: 49.5%
- Tumor growth inhibition (TGI) (%) Timor volume [3, 8]: 46.2%
- Tumor growth inhibition (TGI) (%) Tumor weight [3, 8]: 47.9%
- Spleen/body weight ratio % of control [4, 7]: 104.3%
- Spleen/body weight ratio Inhibition (%) [4, 7]: −4.3%
- Spleen/body weight ratio % of control [4, 8]: 102.7%
- Spleen/body weight ratio Inhibition (%) [4, 8]: −2.7%
